Reference: PMC8372404 (Frontiers in Neuroscience, 2021)
Where a SMILES comes first, the peptide text is derived from it.

What was measured:
[1] = Preliminary pharmacokinetic studies; format: in vivo; details: preliminary and ongoing pharmacokinetic studies
BALB/c mice [2] = assay: Forced swim test (FST); format: in vivo; details: LCGA-17 5 mg/kg (none of the other dosages); diazepam 0.75 mg/kg
Protocol: (§1) The open field test (OFT) was used to assess locomotion. The total distance traveled in a 5 min session was recorded using Ethovision XT14 ([Prut and Belzung, 2003]). The elevated plus maze (EPM) and the marble burying test (MBT) were used to assess anxiolytic-like drug activity. For the EPM ([Pellow et al., 1985]), the percentage of time spent in the open arms, the percentage of open arm entries, and the number of total arm entries during a 5-min session were recorded using Ethovision. “Anxiety Index” (AI), an integrative behavioral measure in the EPM was calculated as follows: 100 × {1 − [(time spent on open arms/total time on the maze)/2 + (number of entries to the open arms/total exploration on the maze)/2]} ([Cohen et al., 2011]). The MBT ([Njung’e and Handley, 1991]) was carried out in a 19 × 29 × 13 cm cage filled 5 cm deep with wood-chip bedding. Twenty marbles (5.2 g, 15 mm diameter, randomly colored) were evenly placed on the surface of the bedding in four rows of five pieces. At the end of a 30 min test, the animal was removed, and the marbles buried in bedding by at least two-thirds were recorded. […] The next day they were re-exposed to the same apparatus for a 5 min test session with the behavior video recorded. The total time spent immobile was quantitated off-line visually. […]

BALB/c mice [3] = assay: Marble burying test (MBT); format: in vivo; details: diazepam 0.75 mg/kg
Protocol: as §1

Danio rerio [4] = assay: Novel tank test (NTT); format: in vivo; details: exp group
Protocol: (§2) Control groups were treated in parallel with vehicle alone. For drug injection, the fish were anesthetized briefly by placing them in 10°C water. The vehicle controls were tested in parallel.
(§3) Behavioral testing was initiated 10 min after drug injection, starting with the novel tank test (NTT), followed immediately thereafter by the light–dark box (LDB) and the social preference test (SPT). The NTT was adapted from [Maximino et al. (2013)] with the behavior video-recorded and the data processed using EthoVision XT14 (Noldus). The distance traveled, speed, number of visits to the bottom, middle and top thirds of the aquarium, respectively, and the times spent in each of these zones during the initial 5 min in the tank were recorded. A decreased time spent at the surface of the NTT apparatus reflects a reduction in exploratory behavior or increased hiding motivation ([Sackerman et al., 2010]). The behavior in the LDB ([Maximino et al., 2011]) and SPT ([Parker et al., 2014]) was video recorded and processed using RealTimer (Open Science LCC, Russia). The fish were added to the center zone of a three-zone aquarium and allowed to adapt for 1–2 min before removal of the septa separating the center from the flanking zones. The time spent and the number of visits to the light and dark flanking zones and the latency to enter the lit zone were recorded during a 5-min session. Stress of fish is associated with increased time spent in the dark compartment (scototaxis) ([Maximino et al., 2011]). For the SPT, the residence time and the number of visits to the three equally sized zones (near the shoal, in the center zone of the aquarium, and near the wall opposite to the shoal) were assessed during a 5-min session. Increased shoal preference (shoaling reflex) is thought to represent a protective response to a predator ([Nguyen et al., 2014]). All behavioral testing was done in the light phase using 500 lux (NTT, LDB) or 200 lux (SPT) illumination.

BALB/c mice [5] = assay: Elevated plus maze (EPM); format: in vivo
Protocol: The open field test (OFT) was used to assess locomotion. The total distance traveled in a 5 min session was recorded using Ethovision XT14 ([Prut and Belzung, 2003]). The elevated plus maze (EPM) and the marble burying test (MBT) were used to assess anxiolytic-like drug activity. For the EPM ([Pellow et al., 1985]), the percentage of time spent in the open arms, the percentage of open arm entries, and the number of total arm entries during a 5-min session were recorded using Ethovision. “Anxiety Index” (AI), an integrative behavioral measure in the EPM was calculated as follows: 100 × {1 − [(time spent on open arms/total time on the maze)/2 + (number of entries to the open arms/total exploration on the maze)/2]} ([Cohen et al., 2011]). The MBT ([Njung’e and Handley, 1991]) was carried out in a 19 × 29 × 13 cm cage filled 5 cm deep with wood-chip bedding. Twenty marbles (5.2 g, 15 mm diameter, randomly colored) were evenly placed on the surface of the bedding in four rows of five pieces. At the end of a 30 min test, the animal was removed, and the marbles buried in bedding by at least two-thirds were recorded. […] The forced swim test (FST) was used for a preliminary assessment of antidepressant drug activity as described ([Colelli et al., 2014]). Briefly, on day one the mice were exposed to a 10 min pre-swim in a cylinder filled with 24 ± 1°C water. The next day they were re-exposed to the same apparatus for a 5 min test session with the behavior video recorded. The total time spent immobile was quantitated off-line visually. The interval between sequential behavioral tests was 2–3 days with the sequence OFT, EPM, MBT, and FST. All the testing and data analyses were performed by experimenters blind to treatment.

BALB/c mice [6] = assay: Open field test (OFT); format: in vivo; details: diazepam 0.75 mg/kg
Protocol: as §1

Danio rerio [7] = assay: Social preference test (SPT); format: in vivo; details: for SPT. Time spent out of shoaling zone, Median: 5 min session, exp group
Protocol: as §2, §3

Danio rerio [8] = assay: Light–dark box (LDB); format: in vivo; details: for LDB. Time spent in lit compartment, Median: 5 min session, exp group
Protocol: as §2, §3

[9] = biological target: [3H]-LCGA-17 binding site in rat brain membranes (putative α2δ); assay: [3H]-LCGA-17 radioligand competition binding assay; details: rat brain membranes
[10] = LCGA-17 groups 1, 5, 10, 20 mg/kg combined
[11] = LCGA-17 20 mg/kg + bicuculline 5 mg/kg
[12] = bicuculline study: LCGA-17 20 mg/kg or bicuculline 5 mg/kg alone

NC(=O)CC[C@H](NC(=O)[C@@H](N)Cc1ccccc1)C(=O)N[C@@H](CO)C(=O)N[C@@H](CCC(=O)O)C(=O)O [LCGA-17, PheGlnSerGlu] (H-FQSE-OH; N-terminus and C-terminus assumed)
in vivo half-life [1]: minutes

CN1C(=O)CN=C(c2ccccc2)c2cc(Cl)ccc21 [Diazepam]
FST, effect on total time spent immobile vs vehicle (BALB/c mice [2]): failed to affect the behavior
MBT, effect on number of marbles buried vs vehicle (BALB/c mice [3]; LCGA-17 5, 20 mg/kg, 30 min test): reduced
MBT, effect on number of marbles buried vs vehicle (BALB/c mice [3]; [10]): reduced
NTT. Distance traveled, Median (Danio rerio [4]; 1.25 mg/kg): 887 cm
NTT. Distance traveled, Median (Danio rerio [4]; 5 mg/kg): 595 cm
EPM, effect on percentage of time spent on open arms vs vehicle (BALB/c mice [5]; mouse, in vivo): increased
OFT, effect on distance traveled vs vehicle (BALB/c mice [6]; LCGA-17 5, 20 mg/ml as printed, 5 min session): modestly increased
OFT, effect on distance traveled vs vehicle (BALB/c mice [6]; [10]): increased
SPT. Time spent out of shoaling zone, Median (Danio rerio [7]; 1.25 mg/kg): 20 s
SPT. Time spent out of shoaling zone, Median (Danio rerio [7]; 5 mg/kg): 21 s
SPT, effect on time spent out of the shoaling zone vs vehicle (Danio rerio [7]; most informative dosage, Figure 2D): anxiolytic-like effect
LDB. Time spent in lit compartment, Median (Danio rerio [8]; 1.25 mg/kg): 21 s
LDB. Time spent in lit compartment, Median (Danio rerio [8]; 5 mg/kg): 177 s
LDB, effect on time spent in the lit compartment vs vehicle (Danio rerio [8]; most informative dosage, Figure 2C): anxiolytic-like effect

CN1CCc2cc3c(cc2[C@H]1[C@@H]1OC(=O)c2c1ccc1c2OCO1)OCO3 [Bicuculline]
IC50 ([9]; competition of [3H]-LCGA-17 (16 nM) binding, Table S1): > 100 µM
cross-reactivity with / competition at the [3H]-LCGA-17 binding site ([9]; result in words): no cross-reactivity
EPM, effect of co-administered bicuculline on the LCGA-17 effect on % time on open arms (BALB/c mice [5]; [11]): completely blocked
EPM, effect of co-administered bicuculline on the LCGA-17 effect on open arm entries (BALB/c mice [5]; [11]): reduced the LCGA-17 effect
EPM, effect of cotreatment with bicuculline on the LCGA-17 effect on AI (BALB/c mice [5]; [11]): reversed
EPM, effect on open arm entries, single agent (BALB/c mice [5]; bicuculline 5 mg/kg alone): without effects
EPM, effect on total arm entries (BALB/c mice [5]; bicuculline 5 mg/kg main effect, post hoc pairwise comparisons not significant): slightly reduced
EPM, effect on % time on open arms, single agent (BALB/c mice [5]; [12]): no effect
EPM, effect on Anxiety Index (AI), single agent (BALB/c mice [5]; [12]): without effects
